Measurements from patent US11149031B2, “Substituted N-(3-fluoropropyl)-pyrrolidine compounds, processes for their preparation and therapeutic uses thereof” (SANOFI, priority 2016, dated 2021).
Read-outs that look alike come from different tables or passages of the source.

What was measured:
[1] = target: His6-ERα298-554 WT (ERα ligand-binding domain) (Homo sapiens (Human), UniProt P03372); test: Test A: biochemical antagonist activity, LanthaScreen TR-FRET ERα coactivator assay, WT; details: asterisk (*): protocol using 10 nM estradiol; read-out: Antagonism WT IC50
Chain of His6-ERα298-554 WT (ERα ligand-binding domain) (P03372 298-554): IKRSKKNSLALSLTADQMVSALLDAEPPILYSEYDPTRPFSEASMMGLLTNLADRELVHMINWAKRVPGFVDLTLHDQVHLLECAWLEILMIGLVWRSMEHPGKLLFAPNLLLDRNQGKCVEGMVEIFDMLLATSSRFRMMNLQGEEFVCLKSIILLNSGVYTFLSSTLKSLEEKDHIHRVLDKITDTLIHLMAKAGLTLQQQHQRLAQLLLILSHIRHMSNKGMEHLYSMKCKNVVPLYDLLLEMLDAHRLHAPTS
In short: (§1)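 IC50 values come from a 4-parameter logistic fit of the 520:495 nm TR-FRET ratio after overnight room-temperature incubation. The mix held 0.5 nM ERα 298–554 LBD, Tb-labelled anti-His6 antibody, 250 nM PGC1a peptide and 3 nM or 10 nM estradiol, pH 7.4 phosphate buffer with DTT.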

[2] = target: His6-ERα298-554 D538G mutant (ERα ligand-binding domain) (Homo sapiens (Human), UniProt P03372, D538G); test: Test A: biochemical antagonist activity, LanthaScreen TR-FRET ERα coactivator assay, D538G mutant; details: asterisk (*): protocol using 10 nM estradiol; read-out: Antagonism D538G IC50
Chain of His6-ERα298-554 D538G mutant (ERα ligand-binding domain) (P03372 298-554 D538G): as the sequence (P03372 298-554) above, with D241G counted along it
In short: as §1

[3] = target: His6-ERα298-554 Y537S mutant (ERα ligand-binding domain) (Homo sapiens (Human), UniProt P03372, Y537S); test: Test A: biochemical antagonist activity, LanthaScreen TR-FRET ERα coactivator assay, Y537S mutant; details: asterisk (*): protocol using 10 nM estradiol; read-out: Antagonism Y537S IC50
Chain of His6-ERα298-554 Y537S mutant (ERα ligand-binding domain) (P03372 298-554 Y537S): as the sequence (P03372 298-554) above, with Y240S counted along it
In short: as §1

[4] = test system: MCF7 cells (breast tumor cells) WT; test: Test B: cell proliferation/viability assay (CellTiter-Glo) on MCF7 WT; format: cell-based; details: 7 days of compound exposure
Experimental: (§2) Test B: Cell Proliferation/Viability Assay on MCF7 (Breast Tumor Cells) WT and Mutants Cell Lines
(§3) Test B involves measuring the in vitro proliferation activity of the compounds of the invention by analyzing the viability of the tumor cells.
The measurements of the viability were made using a breast cancer cell viability assay as described hereunder. […]
(§4) MCF7 cells (ATCC) or MCF7 cells expressing (and dependent) on mutants estrogen receptor Tyr 537 Ser or Asp 538 Gly were seeded in 384 wells microplate at concentration of >999 cells/30 μL per well in red phenol free MEM medium containing 5% charcoal dextran striped FBS. The following day, 9 points serial 1:5 dilution of each compound were added to the cells in 20 μL at final concentrations ranging from 3-0.000001 μM. After 7 days of compound exposure, 50 μL of CellTiter-Glo (promega) was added to the cells and relative luminescence arbitrary units (RLUs) were determined in luminescence plate reader (Envision device). CellTiter-Glo was added to 50 μL medium without cells to determine the background signal.
(§5) The percent of viability of each sample was determined as follows: (RLU sample−RLU background/RLU untreated−RLU background)*100=% viability.

[5] = test system: MCF7 cells expressing mutant estrogen receptor Tyr 537 Ser; test: Test B: cell proliferation/viability assay (CellTiter-Glo) on MCF7 Tyr 537 Ser mutant; format: cell-based; details: MCF7 cells expressing ER Tyr 537 Ser mutant, 7 days of compound exposure, read-out: proliferation MCF7 Y537S IC50
Source text: as §2, §3
(§6) The measurements of the viability were made using a breast cancer cell viability assay as described hereunder.
(§7) MCF7 cells expressing (and dependent) on mutants estrogen receptor Tyr 537 Ser or Asp 538 Gly were generated by transfection of MCF7 parental cells (ATCC) with expression vectors coding for different mutants of estrogen receptor Tyr 537 Ser or Asp 538 Gly. The cells were first selected by antibiotic (related to vector expression) and then selected for their growth dependence on estrogen receptor based on their ability to grow in vitro in absence of estradiol (parental cell line die in absence of estradiol).
as §4, §5

[6] = test system: MCF7 cells expressing mutant estrogen receptor Asp 538 Gly; test: Test B: cell proliferation/viability assay (CellTiter-Glo) on MCF7 Asp 538 Gly mutant; format: cell-based; details: MCF7 cells expressing ER Asp 538 Gly mutant, 7 days of compound exposure, read-out: proliferation MCF7 D538G IC50
Source text: as §2, §3, §6, §7, §4, §5

ERα in MCF7 cells = ERα in MCF7 cells (Homo sapiens (Human), UniProt P03372); test: Test C: estrogen receptor degradation activity, ERα in cell western assay in MCF7 cells; format: cell-based; details: for DC50: 4 hours post compound addition, ERα in cell western, read-out: Degradation IC50; for % Degradation at 3 μM: 4 hours, relative to fulvestrant
Chain of ERα in MCF7 cells (P03372 whole entry): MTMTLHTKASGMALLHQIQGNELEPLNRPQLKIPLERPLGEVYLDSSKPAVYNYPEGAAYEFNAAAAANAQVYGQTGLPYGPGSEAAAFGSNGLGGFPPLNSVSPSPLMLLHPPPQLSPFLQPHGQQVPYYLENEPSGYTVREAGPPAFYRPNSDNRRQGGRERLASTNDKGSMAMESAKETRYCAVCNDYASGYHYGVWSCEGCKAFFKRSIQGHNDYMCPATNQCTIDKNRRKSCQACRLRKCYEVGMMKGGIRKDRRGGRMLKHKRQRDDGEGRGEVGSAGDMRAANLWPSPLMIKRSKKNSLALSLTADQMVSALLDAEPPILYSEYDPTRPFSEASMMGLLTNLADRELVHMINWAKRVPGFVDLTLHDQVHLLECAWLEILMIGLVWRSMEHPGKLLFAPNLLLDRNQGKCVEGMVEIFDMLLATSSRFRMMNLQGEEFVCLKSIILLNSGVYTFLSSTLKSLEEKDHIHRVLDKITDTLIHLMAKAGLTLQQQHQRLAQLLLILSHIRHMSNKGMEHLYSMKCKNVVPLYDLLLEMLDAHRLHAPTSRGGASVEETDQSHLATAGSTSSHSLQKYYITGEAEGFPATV
In short: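 Degradation of ERα was gauged in MCF7 cells after 4 h treatment, by fluorescence immunostaining normalised against DNA content.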

| SMILES | IC50 [1] [nM] | IC50 [2] [nM] | IC50 [3] [nM] | IC50 [4] [nM] | IC50 ([5]; Homo sapiens, MCF7, 168 h) [nM] | IC50 ([6]; Homo sapiens, MCF7, 168 h) [nM] | DC50 (ERα in MCF7 cells) [nM] | % Degradation at 3 μM (ERα in MCF7 cells) [%] | IC50 [5] [nM] | IC50 [6] [nM] | IC50 ([4]; Homo sapiens, MCF7, 168 h) [nM] |
| --- | --- | --- | --- | --- | --- | --- | --- | --- | --- | --- | --- |
| Cc1ccc(C2=C(c3ccc(O[C@H]4CCN(CCCF)C4)cc3)c3ccc(O)cc3[S+]([O-])C2)c(F)c1 (single isomer, unassigned) [Example 70] | 1660 | > 4000 | > 4000 | 64 | 478 | 97 | 25 | 73 |  |  |  |
| Cc1ccc(C2=C(c3ccc(O[C@H]4CCN(CCCF)C4)cc3)c3ccc(O)cc3[S+]([O-])C2)c(F)c1 (single isomer, unassigned) [Example 71] | 2740 | > 4000 | > 4000 | 12 |  |  | 11 | 75 | 414 | 88 |  |
| [O-][S+]1CCC(c2ccc(OC(F)(F)F)cc2)=C(c2ccc(O[C@H]3CCN(CCCF)C3)cc2)c2ccc(O)cc21 (single isomer, unassigned) [Example 226] | > 4000 | > 4000 | > 4000 | 87 |  |  | 103 | 93 | > 999 | 288 |  |
| [O-][S+]1CCC(c2ccc(OC(F)(F)F)cc2)=C(c2ccc(O[C@H]3CCN(CCCF)C3)cc2)c2ccc(O)cc21 (single isomer, unassigned) [Example 227] | 392 | 3330 | 3500 | 6 |  |  | 4 | 90 | 134 | 9 |  |
| CC1Cc2c([nH]c3ccccc23)C(c2c(F)cc(O[C@H]3CCN(CCCF)C3)cc2F)N1CC(C)(C)F (single isomer, unassigned) [Example 256] | 6 | 120 | 101 | 0.1 |  |  | 0.2 | 91 | 2 | 0.7 |  |
| CC1Cc2c([nH]c3ccccc23)C(c2c(F)cc(O[C@H]3CCN(CCCF)C3)cc2F)N1CC(C)(C)F (single isomer, unassigned) [Example 257] | 3310 | > 4000 | > 4000 | 18 |  |  | 37 | 87 | 272 | 85 |  |
| Oc1ccc2c(c1)C(c1ccc(O[C@H]3CCN(CCCF)C3)cc1)=C(c1ccc(OC(F)(F)F)cc1Cl)CC2 [Example 7, 7-[2-chloro-4-(trifluoromethoxy)phenyl]-8-[4-[(3S)-1-(3-fluoropropyl)pyrrolidin-3-yl]oxyphenyl]-5,6-dihydronaphthalen-2-ol] | 1470 | > 4000 | > 4000 |  | > 999 | 18 | 22 | 82 |  |  | 13 |
| Oc1ccc2c(c1)CCC(c1ccc(OC(F)(F)F)cc1)=C2c1ccc(O[C@H]2CCN(CCCF)C2)cc1 [Example 12, 5-[4-[(3S)-1-(3-fluoropropyl)pyrrolidin-3-yl]oxyphenyl]-6-[4-(trifluoromethoxy)phenyl]-7,8-dihydronaphthalen-2-ol] |  |  |  |  | 9 | 5 |  |  |  |  | 1 |
| Oc1ccc2c(c1)CCC(c1ccc(F)cc1Cl)=C2c1ccc(O[C@H]2CCN(CCCF)C2)cc1 [Example 13, 6-(2-chloro-4-fluoro-phenyl)-5-[4-[(3S)-1-(3-fluoropropyl)pyrrolidin-3-yl]oxyphenyl]-7,8-dihydronaphthalen-2-ol] |  |  |  |  | 8 | 3 |  |  |  |  | 0.4 |
| Oc1ccc2c(c1)CCC(c1ccc(Cl)cc1Cl)=C2c1ccc(O[C@H]2CCN(CCCF)C2)cc1 [Example 14, 6-(2,4-dichlorophenyl)-5-[4-[(3S)-1-(3-fluoropropyl)pyrrolidin-3-yl]oxyphenyl]-7,8-dihydronaphthalen-2-ol] |  |  |  |  | 6 | 1 |  |  |  |  | 0.5 |
| Oc1ccc(C2=C(c3ccc(O[C@H]4CCN(CCCF)C4)cc3)c3ccc(O)cc3CC2)cc1 [Example 15, 5-[4-[(3S)-1-(3-fluoropropyl)pyrrolidin-3-yl]oxyphenyl]-6-(4-hydroxyphenyl)-7,8-dihydronaphthalen-2-ol] |  |  |  |  | 30 | 25 |  |  |  |  | 0.2 |
| Cc1ccc(C2=C(c3ccc(O[C@H]4CCN(CCCF)C4)cc3)c3ccc(O)cc3SC2)c(Cl)c1 [Example 58, 3-(2-chloro-4-methyl-phenyl)-4-[4-[(3S)-1-(3-fluoropropyl)pyrrolidin-3-yl]oxyphenyl]-2H-thiochromen-7-ol] |  |  |  |  | 5 | 0.8 |  |  |  |  | 2 |
| Cc1nc(C)c(C2=C(c3ccc(O[C@H]4CCN(CCCF)C4)cc3)c3ccc(O)cc3SC2)s1 [Example 68, 3-(2,4-dimethylthiazol-5-yl)-4-[4-[(3S)-1-(3-fluoropropyl)pyrrolidin-3-yl]oxyphenyl]-2H-thiochromen-7-ol] |  |  |  |  | 125 | 7 |  |  |  |  | 14 |
| CC(C)Oc1ccc(C2=C(c3ccc(O[C@H]4CCN(CCCF)C4)cc3)c3ccc(O)cc3OCC2)c(C(F)(F)F)c1.Cl [Example 150, 5-[4-[(3S)-1-(3-fluoropropyl)pyrrolidin-3-yl]oxyphenyl]-4-[4-isopropoxy-2-(trifluoromethyl)phenyl]-2,3-dihydro-1-benzoxepin-8-ol hydrochloride] |  |  |  |  | 14 | 2 | 4 | 82 |  |  | 0.4 |
| Oc1ccc2c(c1)SCCC(c1ccc(Cl)cc1Cl)=C2c1ccc(O[C@H]2CCN(CCCF)C2)cc1 [Example 166, 4-(2,4-dichlorophenyl)-5-[4-[(3S)-1-(3-fluoropropyl)pyrrolidin-3-yl]oxyphenyl]-2,3-dihydro-1-benzothiepin-8-ol] |  |  |  |  | 8 | 1 | 2 | 90 |  |  | 0.2 |
| O=C(O)c1ccc2c(c1)SCCC(c1ccc(Cl)cc1Cl)=C2c1ccc(O[C@H]2CCN(CCCF)C2)cc1 [Example 203, 4-(2,4-dichlorophenyl)-5-[4-[(3S)-1-(3-fluoropropyl)pyrrolidin-3-yl]oxyphenyl]-2,3-dihydro-1-benzothiepine-8-carboxylic acid] |  |  |  |  | 13 | 1 | 0.6 | 93 |  |  | 0.8 |
| Oc1ccc2c(c1)SCCC(c1ccc(Cl)cc1Cl)=C2c1ccc(O[C@H]2CCN(CCCF)C2)nc1 [Example 205, 4-(2,4-dichlorophenyl)-5-[6-[(3S)-1-(3-fluoropropyl)pyrrolidin-3-yl]oxy-3-pyridyl]-2,3-dihydro-1-benzothiepin-8-ol] |  |  |  |  | 3 | 0.2 | 0.4 | 84 |  |  | 0.2 |
| Oc1ccc2c(c1)CCCC(c1ccc(Cl)c(F)c1)=C2c1ncc(O[C@H]2CCN(CCCF)C2)cn1 [Example 254, 6-(4-chloro-3-fluoro-phenyl)-5-[5-[(3S)-1-(3-fluoropropyl)pyrrolidin-3-yl]oxypyrimidin-2-yl]-8,9-dihydro-7H-benzo[7]annulen-2-ol] |  |  |  |  | 129 | 17 |  |  |  |  | 16 |
